Values of other authors, collected in CN114831954A, “一种左氧氟沙星片” (priority 2022, dated 2022).

Assays:
[1] = background statement
[2] = in vivo, po
[3] = test system: Gram-positive and Gram-negative bacteria [革兰氏阳性菌和阴性菌]; details: background statement

For `CC1COc2c(N3CCN(C)CC3)c(F)cc3c(=O)c(C(=O)O)cn1c23` (stereo not shown) [氧氟沙星], the biological half-life [1] is given as roughly 6 h, the gastrointestinal adverse reactions [2] is given as “有胃肠不良反应” and the antibacterial effect ([3]; Gram-positive and Gram-negative bacteria) is given as “对革兰氏阳性菌和阴性菌均有光谱的效果”. The “concentration dependence of antibacterial effect” value [3] was “具有明显的浓度依赖性”.
